Patent publication US5708034A, “Substituted sulfonimidamides, processes for their preparation, their use as a medicament or diagnostic, and medicament comprising them” (Hoechst Aktiengesellschaft, priority 1995, dated 1998)
Structures can show the parent of a compound that is named as a salt.

Molecular target: T1, Na^+ /H^+ exchanger of rabbit erythrocytes (Oryctolagus cuniculus, UniProt P23791)
T1 construct: determine the Na^+ influx into the erythrocytes via Na^+ /H^+ exchange by flame photometry; endogenous in cells; host or cells: erythrocytes from ear-artery blood of cholesterol-fed White New Zealand rabbits (animals from Ivanovas)
T1 sequence (P23791 whole entry): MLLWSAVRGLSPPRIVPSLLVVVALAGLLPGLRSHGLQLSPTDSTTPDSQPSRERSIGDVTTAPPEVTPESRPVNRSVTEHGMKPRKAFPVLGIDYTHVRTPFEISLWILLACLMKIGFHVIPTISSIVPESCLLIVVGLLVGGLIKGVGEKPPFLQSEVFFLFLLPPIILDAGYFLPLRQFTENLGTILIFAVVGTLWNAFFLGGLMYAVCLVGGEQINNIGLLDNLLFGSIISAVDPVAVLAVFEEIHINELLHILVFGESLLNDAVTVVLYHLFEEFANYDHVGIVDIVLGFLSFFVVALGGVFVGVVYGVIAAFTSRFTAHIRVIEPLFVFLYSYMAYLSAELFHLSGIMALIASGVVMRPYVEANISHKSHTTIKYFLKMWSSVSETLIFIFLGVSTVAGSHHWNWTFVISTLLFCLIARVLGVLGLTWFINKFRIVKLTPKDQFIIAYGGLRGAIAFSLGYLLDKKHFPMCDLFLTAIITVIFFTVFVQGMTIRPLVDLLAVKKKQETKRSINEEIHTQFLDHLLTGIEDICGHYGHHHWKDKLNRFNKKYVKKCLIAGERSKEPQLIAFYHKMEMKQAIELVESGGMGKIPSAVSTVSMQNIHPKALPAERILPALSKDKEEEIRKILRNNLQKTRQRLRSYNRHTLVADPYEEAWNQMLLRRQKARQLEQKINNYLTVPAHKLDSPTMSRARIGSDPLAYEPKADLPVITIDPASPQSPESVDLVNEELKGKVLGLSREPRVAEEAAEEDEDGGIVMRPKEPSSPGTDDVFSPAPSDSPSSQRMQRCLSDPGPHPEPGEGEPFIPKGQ
Experiment: Inhibition of the Na^+ /H^+ exchanger of rabbit erythrocytes (amiloride-sensitive Na^+ influx, flame photometry)
Format: cell-based, rabbit (White New Zealand)
Settings: hyperosmolar salt-sucrose medium, pH 7.4, 37° C., sodium influx by flame photometry
Excerpt: Inhibition of the Na^+ /H^+ exchanger of rabbit erythrocytes
White New Zealand rabbits (Ivanovas) received a standard diet with 2% cholesterol for six weeks in order to activate Na^+ /H^+ exchange and thus to be able to determine the Na^+ influx into the erythrocytes via Na^+ /H^+ exchange by flame photometry. The blood was taken from the ear arteries and rendered incoagulable by means of 25 IU of potassium heparin. A part of each sample was used for the duplicate determination of the hematocrit by centrifugation. Aliquots of 100 μl in each case were used to measure the Na^+ starting content of the erythrocytes.
In order to determine the amiloride-sensitive sodium influx, 100 μl of each blood sample were incubated in each case in 5 ml of a hyperosmolar salt-sucrose medium (mmol/l: 140 NaCl, 3 KCl, 150 sucrose, 0.1 ouabain, 20 tris-hydroxymethylaminomethane) at pH 7.4 and 37° C. The erythrocytes were then washed three times with ice-cold MgCl2 ouabain solution (mmol/l: 112 MgCl2, 0.1 ouabain) and hemolyzed in 2.0 ml of distilled water. The intracellular sodium content was determined by flame photometry.
The net Na^+ influx was calculated from the difference between sodium starting values and the sodium content of the erythrocytes after incubation. The amiloride-inhibitable sodium influx resulted from the difference between the sodium content of the erythrocytes after incubation with and without amiloride 3×10^-4 mol/l. This procedure was also used in the case of the compounds according to the invention.

Row | SMILES | IC50 [µM]
1 | CCN=S(=O)(c1ccc(F)cc1)N(CC)c1ccc(C(=O)N=C(N)N)cc1C(F)(F)F (stereo not shown) [Example 2, 4-(4-Fluorobenzene-N,N'-diethylsulfimidamoyl)-3-trifluoro-methylbenzoylguanidine, dihydrochloride] | 53
2 | CN=S(=O)(NC)c1cc(C(=O)N=C(N)N)ccc1C(C)C (stereo not shown) [Example 4, 2-isopropyl-5-guanidinocarbonylbenzenesulfonic acid N,N'-dimethylimidamide] | 6000
3 | CCN=S(=O)(c1ccc(F)cc1)N(CC)c1ccc(C(=O)N=C(N)N)cc1S(C)(=O)=O (stereo not shown) [Example 1, 4-(4-Fluorobenzene-N,N'-diethylsulfimidamoyl)-3-methyl-sulfonylbenzoylguanidine, dihydrochloride] | 680
4 | CS(=O)(=O)c1cc(C(=O)N=C(N)N)ccc1NS(=N)(=O)c1ccc(F)cc1 (stereo not shown) [Example 3, 3-Methylsulfonyl-4-(4-fluorobenzenesulfimidamoyl)benzoylguanidine] | 2000
